Here are results for twelve compounds from patent US20110046210A1, “SUBSTITUTED THIOPENECARBOXAMIDES AS IKK-BETA SERINE-, THREONINE-PROTEIN KINASE INHIBITORS” (CHROMA THERAPEUTICS LTD., priority 2008, published 2011).

Like-named read-outs stand apart in the source and are kept apart here.

The target of assay [1] is T1, IKBKB (IKK-β) (Homo sapiens, UniProt O14920).
T1 construct: purchased Invitrogen (Paisley, UK)
T1 sequence (O14920 1-756): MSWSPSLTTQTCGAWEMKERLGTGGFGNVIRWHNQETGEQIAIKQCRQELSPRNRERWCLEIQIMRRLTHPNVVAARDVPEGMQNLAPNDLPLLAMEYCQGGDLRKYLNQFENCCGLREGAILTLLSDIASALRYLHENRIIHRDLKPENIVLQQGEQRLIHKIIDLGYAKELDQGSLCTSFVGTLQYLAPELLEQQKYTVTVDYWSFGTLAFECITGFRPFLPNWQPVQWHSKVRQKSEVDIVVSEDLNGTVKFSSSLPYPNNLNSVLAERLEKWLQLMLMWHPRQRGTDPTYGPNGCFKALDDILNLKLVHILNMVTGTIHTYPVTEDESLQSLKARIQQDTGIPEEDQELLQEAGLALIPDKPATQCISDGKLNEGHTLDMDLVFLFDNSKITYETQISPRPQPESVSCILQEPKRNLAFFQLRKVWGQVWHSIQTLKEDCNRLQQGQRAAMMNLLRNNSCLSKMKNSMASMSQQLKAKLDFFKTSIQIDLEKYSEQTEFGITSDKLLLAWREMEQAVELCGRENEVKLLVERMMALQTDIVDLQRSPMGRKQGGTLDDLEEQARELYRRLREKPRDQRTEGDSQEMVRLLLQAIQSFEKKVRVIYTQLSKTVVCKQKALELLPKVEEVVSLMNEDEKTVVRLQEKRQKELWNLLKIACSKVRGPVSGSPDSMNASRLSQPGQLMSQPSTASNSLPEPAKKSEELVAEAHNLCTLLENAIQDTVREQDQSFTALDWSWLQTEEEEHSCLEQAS
The assay is described as follows: IKKβ enzyme assay (Z'-LYTE, Invitrogen). It is filed as biochemical. The protocol: The ability of compounds to inhibit IKK-β kinase activity was measured in an assay performed by Invitrogen (Paisley, UK). The Z′-LYTE™ biochemical assay employs a fluorescence-based, coupled-enzyme format and is based on the differential sensitivity of phosphorylated and non-phosphorylated peptides to proteolytic cleavage. The peptide substrate is labelled with two fluorophores—one at each end—that make up a FRET pair. In the primary reaction, the kinase transfers the gamma-phosphate of ATP to a single serine or threonine residue in a synthetic FRET-peptide. In the secondary reaction, a site-specific protease recognizes and cleaves non-phosphorylated FRET-peptides. Phosphorylation of FRET-peptides suppresses cleavage by the Development Reagent. Cleavage disrupts FRET between the donor (i.e. coumarin) and acceptor (i.e. fluorescein) fluorophores on the FRET-peptide, whereas uncleaved, phosphorylated FRET-peptides maintain FRET. A […] method, which calculates the ratio (the Emission Ratio) of donor emission to acceptor emission after excitation of the donor fluorophore at 400 nm, is used to quantitate reaction progress.
The final 10 μL Kinase Reaction consists of 0.9-8.0 ng IKBKB (IKK-β), 2 μM Ser/Thr 05 Peptide and ATP in 50 mM HEPES pH 7.5, 0.01% BRIJ-35, 10 mM MgCl2, 1 mM EGTA. The assay is performed at an ATP concentration at, or close to the Km. After the 60 minute Kinase Reaction incubation at room temperature, 5 μL of a 1:128 dilution of Development Reagent is added. The assay plate is incubated for a further 60 minutes at room temperature and read on a fluorescence plate reader.
Duplicate data points are generated from a ⅓ log dilution series of a stock solution of test compound in DMSO. Nine dilutions steps are made from a top concentration of 10 μM, and a ‘no compound’ blank is included. Data is collected and analysed using XLfit software from IDBS. The dose response curve is curve fitted to model number 205 (sigmoidal dose-response model). From the curve generated, the concentration giving 50% inhibition is determined and reported.

For assay [2], the system named is THP-1 cells. The assay is described as follows: LPS-stimulation of THP-1 cells, TNF-α release. It is filed as cell-based. Particulars: Homo sapiens, LPS 1 μg/ml, 6 hours, IC50 range, read-out: Inhibitor activity versus THP-1 TNFα release. The protocol:
THP-1 cells were plated in 100 μl at a density of 4×10^4 cells/well in V-bottomed 96 well tissue culture treated plates and incubated at 37° C. in 5% CO2 for 16 hours. 2 hours after the addition of the inhibitor in 100 μl of tissue culture media, the cells were stimulated with LPS (E coli strain 005:B5, Sigma) at a final concentration of 1 μg/ml and incubated at 37° C. in 5% CO2 for 6 hours. TNF-α levels were measured from cell-free supernatants by sandwich ELISA (R&D Systems #QTA00B).

In assay [3] the test system is human whole blood. The assay is described as follows: LPS-stimulation of human whole blood, TNF-α release. It counts as cell-based. The protocol:
Whole blood was taken by venous puncture using heparinised vacutainers (Becton Dickinson) and diluted in an equal volume of RPMI1640 tissue culture media (Sigma). 100 μl was plated in V-bottomed 96 well tissue culture treated plates. 2 hours after the addition of the inhibitor in 100 μl of RPMI1640 media, the blood was stimulated with LPS (E coli strain 005:B5, Sigma) at a final concentration of 100 ng/ml and incubated at 37° C. in 5% CO2 for 6 hours. TNF-α levels were measured from cell-free supernatants by sandwich ELISA (R&D Systems #QTA00B). Human heparinised blood (17-IU/ml) was diluted with an equal volume of RPMI-1640 and then sub-aliquoted into 96 well microtitre wells (100 µl/well). Inhibitors of IKKβ that had been serially diluted in RPMI-1640 were added to the wells (100 µl/well) to give a range of final concentrations (5-10000 nM). After incubation for 2 hours at 37° C., TNF[…] production was stimulated for 6 hours at 37° C. by the addition of 10 µl of LPS (E Coli 055:B5) to give a final concentration of 100 ng/ml. Plates were then centrifuged for 3 minutes at 800 g and TNF[…] present in the supernatant then measured, using a QuantiGlo Chemiluminescent ELISA (R&D Systems). The human whole blood assay measures the ability of the compounds to inhibit the LPS stimulated production of TNF alpha in human blood cells mediated by IKKβ in a physiologically relevant setting.

[4] abbreviates: ATP at or close to Km, IC50 range, read-out: Inhibitor activity versus IKKβ.
The mark [5] stands for this setting: LPS 100 ng/ml, 6 hours, IC50 range, read-out: Inhibitor activity versus human whole blood TNFα release.
[6] abbreviates: read-out: Enzyme IC50 (nM) vs IKKβ.
The mark [7] stands for this setting: LPS stimulated TNF alpha production, read-out: IC50 in Human whole blood.

For the compound `CC(C)(NCCc1cccc(-c2cc(C(N)=O)c(NC(N)=O)s2)c1)C(=O)OC1CCCC1` [Example 6, Cyclopentyl N-(2-{3-[4-carbamoyl-5-(carbamoylamino)-2-thienyl]phenyl}ethyl)-2-methylalaninate], the IC50 is 500 to 1000 nM in assay [1] (setting [4]), 500 to 1000 nM in assay [2] and below 500 nM in assay [3] (setting [5]).
Take `CC(C)(NCc1ccc(-c2cc(C(N)=O)c(NC(N)=O)s2)cc1)C(=O)OC1CCCC1` [Example 5, Cyclopentyl N-{4-[4-carbamoyl-5-(carbamoylamino)-2-thienyl]benzyl}-2-methylalaninate]: the IC50 was below 500 nM in assay [1] (setting [4]), above 1000 nM in assay [2] and 500 to 1000 nM in assay [3] (setting [5]).
For the compound `CC(C)(NC(=O)c1cccc(-c2cc(C(N)=O)c(NC(N)=O)s2)c1)C(=O)OC1CCCC1` [Example 3, Cyclopentyl N-{3-[4-carbamoyl-5-(carbamoylamino)-2-thienyl]benzoyl}-2-methylalaninate], the IC50 in assay [1] (setting [4]) is below 500 nM; in assay [2] it was above 1000 nM; in assay [3] (setting [5]) it was above 1000 nM.
Take `CC(C)(NCc1ccc2cc(-c3cc(C(N)=O)c(NC(N)=O)s3)ccc2c1)C(=O)OC1CCCC1` [Example 7, Cyclopentyl N-({6-[4-carbamoyl-5-(carbamoylamino)-2-thienyl]-2-naphthyl}methyl)-2-methylalaninate]: the IC50 was above 1000 nM in assay [1] (setting [4]), below 500 nM in assay [2] and above 1000 nM in assay [3] (setting [5]).
With `NC(=O)Nc1sc(-c2ccccc2)cc1C(N)=O` [Compound I, reference compound], the IC50 in assay [1] (setting [6]) was found to be 5 nM; in assay [3] (setting [7]), 489 nM.
For `CC(C)(C)OC(=O)C(C)(C)NCc1cccc(-c2cc(C(N)=O)c(NC(N)=O)s2)c1` [Example 2, tert-Butyl N-{3-[4-carbamoyl-5-(carbamoylamino)-2-thienyl]benzyl}-2-methylalaninate], the IC50 was below 500 nM in assay [1] (setting [4]), below 500 nM in assay [2] and above 1000 nM in assay [3] (setting [5]).
As to `CC(C)(NC(=O)c1cccc(-c2cc(C(N)=O)c(NC(N)=O)s2)c1)C(=O)O` [Example 9, N-{3-[4-Carbamoyl-5-(carbamoylamino)-2-thienyl]benzoyl}-2-methylalanine], the IC50 in assay [1] (setting [4]) was below 500 nM.
Same read-out and setting: under `CC(C)(NCc1cccc(-c2cc(C(N)=O)c(NC(N)=O)s2)c1)C(=O)O` [Example 8, N-{3-[4-Carbamoyl-5-(carbamoylamino)-2-thienyl]benzyl}-2-methylalanine] stands below 500 nM.
In the case of `CCC(CC)(NCc1cccc(-c2cc(C(N)=O)c(NC(N)=O)s2)c1)C(=O)OC1CCCC1` [Example 4, Cyclopentyl 2-({3-[4-carbamoyl-5-(carbamoylamino)-2-thienyl]benzyl}amino)-2-ethylbutanoate], the IC50 is above 1000 nM in assay [1] (setting [4]), below 500 nM in assay [2] and above 1000 nM in assay [3] (setting [5]).
Regarding `CC(C)(NCc1ccc2cc(-c3cc(C(N)=O)c(NC(N)=O)s3)ccc2c1)C(=O)O` [Example 11, N-({6-[4-carbamoyl-5-(carbamoylamino)-2-thienyl]-2-naphthyl}methyl)-2-methylalanine], the IC50 in assay [1] (setting [4]) was below 500 nM.
For `CC(C)(NCc1cccc(-c2cc(C(N)=O)c(NC(N)=O)s2)c1)C(=O)OC1CCCC1` [Example 1, Cyclopentyl N-{3-[4-carbamoyl-5-(carbamoylamino)-2-thienyl]benzyl}-2-methylalaninate], the IC50 in assay [1] (setting [4]) is below 500 nM; in assay [1] (setting [6]), 132 nM; in assay [2], below 500 nM; in assay [3] (setting [5]) it was below 500 nM; in assay [3] (setting [7]), 140 nM.
As for `CC(C)(NCCc1cccc(-c2cc(C(N)=O)c(NC(N)=O)s2)c1)C(=O)O` [Example 10, N-(2-{3-[4-carbamoyl-5-(carbamoylamino)-2-thienyl]phenyl}ethyl)-2-methylalanine], the IC50 in assay [1] (setting [4]) is below 500 nM.
